Data reported in the NIST ThermoML archive (doi:10.1021/je900632q).
Numbers after ± are expanded uncertainties.

Details: 101.3 kPa, Liquid

CCCCn1cc[n+](C)c1.N#CN=C=[N-] [1-butyl-3-methylimidazolium dicyanamide]
Details | mass density [kg/m3] | viscosity [mPa·s]
278.15 K | 1075.8 ± 1.2 | 82.07 ± 2.3
283.15 K | 1072.6 ± 1.2 | 62.54 ± 0.89
288.15 K | 1069.4 ± 1.2 | 48.93 ± 0.71
293.15 K | 1066.2 ± 1.2 | 39.14 ± 0.57
298.15 K | 1063.1 ± 1.2 | 31.8 ± 0.47
303.15 K | 1059.9 ± 1.2 | 26.29 ± 0.39
308.15 K | 1056.8 ± 1.2 | 21.79 ± 0.32
313.15 K | 1053.7 ± 1.2 | 18.5 ± 0.28
318.15 K | 1050.6 ± 1.2 | 15.88 ± 0.24
323.15 K | 1047.5 ± 1.1 | 13.78 ± 0.21
328.15 K | 1044.4 ± 1.1 | 12.06 ± 0.18
333.15 K | 1041.3 ± 1.1 | 10.65 ± 0.16
338.15 K | 1038.2 ± 1.1 | 9.475 ± 0.15
343.15 K | 1035.1 ± 1.1 | 8.485 ± 0.13
348.15 K | 1032.1 ± 1.1 | 7.643 ± 0.12
353.15 K | 1029 ± 1.1 | 6.923 ± 0.11
358.15 K | 1025.8 ± 1.1 | 6.304 ± 0.1
363.15 K | 1022.7 ± 1.1 | 5.77 ± 0.094
